# Experimental data published in patent publication US6006753A, “Use of GLP-1 or analogs to abolish catabolic changes after surgery” (Eli Lilly and Company, priority 1997, dated 1999).
# Columns and labels:
# [1] = Blood glucose in NIDDM patients continuously infused for ten hours during the night (Example 2); type: in vivo, human; conditions: five NIDDM patients
# Experimental: GLP-1 (7-36) amide was administered by a subcutaneous infusion at a dose rate of 1.2 pmol/kg/hr, for ten hours during the night, to five patients having non-insulin dependent diabetes (NIDDM). […] The rate of insulin infusion was adjusted every two hours to achieve optimum control, and to avoid hypoglycemia.
# [2] = Blood glucose in NIDDM patients infused for three hours at each meal during the day (Example 3); type: in vivo, human; conditions: five NIDDM patients
# From the text: During the day, GLP-1 (7-36) amide was infused into five NIDDM patients for three hours during breakfast, lunch, and dinner.
# [3] = overnight glucose infusion 5 mg/kg/min before elective abdominal surgery (Ljungqvist 1994); cited from earlier work
# [4] = Hormone levels (RIA) in patients undergoing hipartroplasty with hyperinsulinemic, normoglycemic clamp before and during surgery; type: in vivo, human; parameters: Glucagon / Cortisol: unit not given here
# Experimental: (§1) After one hour at steady state conditions, all patients underwent a standardized surgical treatment (hipartroplasty). […] The hyperinsulinemic, normoglycemic clamp was then maintained during surgery and continued for a further 3-4 hours after surgery. The data will be presented according to the following nomenclature:
# (§2) The control group received no basal or preop clamp on the day of surgery.
# Blood samples were collected from a heated hand vein repeatedly during the basal, preop, early op, late op and postop periods. Blood glucose was measured immediately upon collection using the glucose oxidase method (Yellow Springs Instruments, Yellow Springs, Ohio) [Hugget, A. S., et al., Lancet 2:368-70 (1957)]. […] Methods of hormone radioimmunoassay, Academic Press, New York and London (1979) pp. 643-56]; and glucagon (Euro-Diagnostica AB, Malm6, Sweden) [Faloona, G. R., et al., Glucagpn radioimmunoassay technique. 5 Vol. 1: Academic Press, New York (1974)].
# (§3) All values are individual values, or mean+SEM (standard error of the mean). Statistical significance is accepted at p<0.05 using Wilcoxon's signed rank test and the Mann-Whitney U-test for paired and unpaired data respectively.
# [5] = Glucose infusion rate (GIR) in hyperinsulinemic, normoglycemic clamp, preop vs postop, elective surgery patients; type: in vivo, human
# Experimental: as §1, §2, §3
# [6] = Indirect calorimetry: substrate oxidation rates and energy expenditure during and after surgery; type: in vivo, human
# Experimental: Indirect calorimetry (Deltatrac® Dansjoo, Sweden) [Frayn, K. N. J. Appl. Physiol. 55(2):628-34 (1983); Takala, J., et al., Crit. Care Med. 17(10): 1041-47 (1989)] was performed for 30 minutes during the basal phase, twice during surgery (early op and late op), and during the last 30 minutes of the preop and postop clamps. Timed sampling of urine for analysis of urinary urea excretion was performed. After correction for changes in urea pool size [Tappy, L, et al., Diabetes 37:1212-16 (1988)], non-protein energy expenditure (EE), respiratory quotients (RQ) and substrate oxidation rates were calculated.
# [7] = Hour 21:00, continuous infusion for ten hours during the night (GLP-1 (7-36) amide sc 1.2 pmol/kg/hr; insulin rate adjusted every two hours)
# [8] = Hour 7:00, GLP-1 (7-36) amide infused three hours from start of each meal, insulin sc injection just before each meal
# [9] = basal, 30 min before start of insulin infusion, insulin group n=7, mean ± SEM
# [10] = early op, insulin 0.8 mU/kg/min iv, n=7
# [11] = late op, insulin 0.8 mU/kg/min iv, n=7
# [12] = postop clamp, insulin 0.8 mU/kg/min iv, n=7
# [13] = preop clamp, insulin 0.8 mU/kg/min iv, n=7
# [14] = insulin group vs control, p<0.05
compound,measurement,setting,value
"CC[C@H](C)[C@H](NC(=O)[C@H](Cc1ccccc1)NC(=O)[C@H](CCC(=O)O)NC(=O)[C@H](CCCCN)NC(=O)[C@H](C)NC(=O)[C@H](C)NC(=O)[C@H](CCC(N)=O)NC(=O)CNC(=O)[C@H](CCC(=O)O)NC(=O)[C@H](CC(C)C)NC(=O)[C@H](Cc1ccc(O)cc1)NC(=O)[C@H](CO)NC(=O)[C@H](CO)NC(=O)[C@@H](NC(=O)[C@H](CC(=O)O)NC(=O)[C@H](CO)NC(=O)[C@@H](NC(=O)[C@H](Cc1ccccc1)NC(=O)[C@@H](NC(=O)CNC(=O)[C@H](CCC(=O)O)NC(=O)[C@H](C)NC(=O)[C@@H](N)Cc1c[nH]cn1)[C@@H](C)O)[C@@H](C)O)C(C)C)C(=O)N[C@@H](C)C(=O)N[C@@H](Cc1c[nH]c2ccccc12)C(=O)N[C@@H](CC(C)C)C(=O)N[C@H](C(=O)N[C@@H](CCCCN)C(=O)NCC(=O)N[C@@H](CCCNC(=N)N)C(N)=O)C(C)C [GLP-1 (7-36) amide, GLP-1(7-36) amide]",Average Blood Glucose,"[1]; Hour 0:00, night infusion",4.4 mM
same,Average Blood Glucose,"[1]; Hour 1:00, night infusion",4.4 mM
same,Average Blood Glucose,"[1]; Hour 2:00, night infusion",4.8 mM
same,Average Blood Glucose,"[1]; Hour 3:00, night infusion",5.2 mM
same,Average Blood Glucose,"[1]; Hour 4:00, night infusion",5.4 mM
same,Average Blood Glucose,"[1]; Hour 5:00, night infusion",5.8 mM
same,Average Blood Glucose,"[1]; Hour 6:00, night infusion",6.0 mM
same,Average Blood Glucose,"[1]; Hour 7:00, night infusion",6.2 mM
same,Average Blood Glucose,[1]; [7],7.5 mM
same,Average Blood Glucose,"[1]; Hour 22:00, night infusion",5.4 mM
same,Average Blood Glucose,"[1]; Hour 23:00, night infusion",4.1 mM
same,Metabolic control compared with insulin,[1]; night infusion,better than that achieved by insulin
same,Effect on blood glucose,"[1]; subcutaneous infusion 1.2 pmol/kg/hr, ten hours during the night",nearly normalized blood glucose
same,Average Blood Glucose,[2]; [8],5.4 mM
same,Average Blood Glucose,"[2]; Hour 8:00, meal-time dosing",4.9 mM
same,Average Blood Glucose,"[2]; Hour 9:00, meal-time dosing",5.7 mM
same,Average Blood Glucose,"[2]; Hour 10:00, meal-time dosing",5.8 mM
same,Average Blood Glucose,"[2]; Hour 11:00, meal-time dosing",8.1 mM
same,Average Blood Glucose,"[2]; Hour 12:00, meal-time dosing",9.4 mM
same,Average Blood Glucose,"[2]; Hour 13:00, meal-time dosing",7.2 mM
same,Average Blood Glucose,"[2]; Hour 14:00, meal-time dosing",5.3 mM
same,Average Blood Glucose,"[2]; Hour 15:00, meal-time dosing",7.2 mM
same,Average Blood Glucose,"[2]; Hour 16:00, meal-time dosing",10.4 mM
same,Average Blood Glucose,"[2]; Hour 17:00, meal-time dosing",9.2 mM
same,Average Blood Glucose,"[2]; Hour 18:00, meal-time dosing",5.7 mM
same,Average Blood Glucose,"[2]; Hour 19:00, meal-time dosing",6.6 mM
same,Average Blood Glucose,"[2]; Hour 20:00, meal-time dosing",8.3 mM
same,Average Blood Glucose,"[2]; Hour 21:00, meal-time dosing",9.3 mM
same,Blood glucose level immediately after terminating each infusion,[2],increased significantly
same,Post-prandial glucose excursions observed with insulin injection,[2]; while GLP-1 was infused,eliminated
O=C[C@H](O)[C@@H](O)[C@H](O)[C@H](O)CO [glucose],Average loss of insulin sensitivity after the operation,[3],32%
"insulin: insulin (Actrapid®, Novo, Copenhagen) in Example 1; insulin comparator in Examples 2 and 3",C-peptide,[4]; [9],.68 ± .09
same,Cortisol,[4]; [9],171 ± 41
same,Glucagon,[4]; [9],58 ± 7
same,C-peptide,"[4]; early op (10 to 40 min after initiation of surgery), insulin 0.8 mU/kg/min iv, n=7",.42 ±.06
same,Cortisol,[4]; [10],234 ± 46
same,Glucagon,[4]; [10],40 ± 3
same,C-peptide levels during surgery compared to the control group,[4]; insulin group vs fasted control,lower
same,Serum insulin levels,"[4]; insulin group, during surgery and the postop clamp, 0.8 mU/kg/min iv",around 60 μU/ml
same,Serum cortisol levels after surgery,"[4]; insulin group, vs preop",decreased
same,Serum glucagon levels after surgery,"[4]; insulin group, vs preop, p<0.05",decreased
same,C-peptide,"[4]; late op (last 30 min of surgery), insulin 0.8 mU/kg/min iv, n=7",.58 ± .12
same,Cortisol,[4]; [11],212 ± 44
same,Glucagon,[4]; [11],35 ± 4
same,C-peptide,[4]; [12],.52 ± .11
same,Cortisol,[4]; [12],172 ± 83
same,Glucagon,[4]; [12],33 ± 4
same,Cortisol,[4]; [13],266 ± 35
same,Glucagon,[4]; [13],52 ± 3
same,C-peptide,"[4]; preop clamp, insulin 0.8 mU/kg/min iv, n=7, mean ± SEM",.45 ± .05
same,Catabolic changes after surgery,[5]; elevated insulin levels before and maintained throughout the operation,completely abolished
same,Change in average GIR in the postop clamp compared to the preop clamp,"[5]; insulin group n=7, p=0.2",+16±20%
same,Average GIR during the postop clamp compared to the control group,[5]; [14],significantly higher
same,Substrate oxidation rates at the postop clamp as compared to the preop clamp,[6]; insulin group,no change
same,"Resting energy expenditure (EE) during or after surgery, between groups",[6]; insulin group vs control,did not differ
same,Fat oxidation rates during surgery,[6]; [14],significantly lower
same,Glucose oxidation rates during surgery,[6]; [14],significantly higher
same,Average Blood Glucose,"[1]; Hour 0:00, night infusion",5.6 mM
same,Average Blood Glucose,"[1]; Hour 1:00, night infusion",5.1 mM
same,Average Blood Glucose,"[1]; Hour 2:00, night infusion",5.2 mM
same,Average Blood Glucose,"[1]; Hour 3:00, night infusion",5.4 mM
same,Average Blood Glucose,"[1]; Hour 4:00, night infusion",5.7 mM
same,Average Blood Glucose,"[1]; Hour 5:00, night infusion",6.0 mM
same,Average Blood Glucose,"[1]; Hour 6:00, night infusion",6.1 mM
same,Average Blood Glucose,"[1]; Hour 7:00, night infusion",6.1 mM
same,Average Blood Glucose,[1]; [7],6.9 mM
same,Average Blood Glucose,"[1]; Hour 22:00, night infusion",6.6 mM
same,Average Blood Glucose,"[1]; Hour 23:00, night infusion",5.9 mM
same,Average Blood Glucose,[2]; [8],6.1 mM
same,Average Blood Glucose,"[2]; Hour 8:00, meal-time dosing",7.0 mM
same,Average Blood Glucose,"[2]; Hour 9:00, meal-time dosing",9.1 mM
same,Average Blood Glucose,"[2]; Hour 10:00, meal-time dosing",9.9 mM
same,Average Blood Glucose,"[2]; Hour 11:00, meal-time dosing",8.2 mM
same,Average Blood Glucose,"[2]; Hour 12:00, meal-time dosing",6.5 mM
same,Average Blood Glucose,"[2]; Hour 13:00, meal-time dosing",9.1 mM
same,Average Blood Glucose,"[2]; Hour 14:00, meal-time dosing",8.1 mM
same,Average Blood Glucose,"[2]; Hour 15:00, meal-time dosing",7.0 mM
same,Average Blood Glucose,"[2]; Hour 16:00, meal-time dosing",7.2 mM
same,Average Blood Glucose,"[2]; Hour 17:00, meal-time dosing",6.5 mM
same,Average Blood Glucose,"[2]; Hour 18:00, meal-time dosing",7.3 mM
same,Average Blood Glucose,"[2]; Hour 19:00, meal-time dosing",6.1 mM
same,Average Blood Glucose,"[2]; Hour 20:00, meal-time dosing",6.0 mM
same,Average Blood Glucose,"[2]; Hour 21:00, meal-time dosing",6.4 mM
